The source of these data is PubChem BioAssay (NCI).

Molecules are shown by their SMILES.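 Compound exposure: 48 hours, 5 concentrations, 96-well plates. Here, GI50 denotes the concentration required for 50% inhibition of growth. TGI: total growth inhibition.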

Test systems include SF-539 CNS; A549 NSCLC; UACC-62 melanoma; MOLT-4 leukemia; LOX IMVI melanoma; KM12 colon; HL-60(TB) leukemia.
Holding throughout (experiment): NCI tumour cell line growth inhibition, 48 h

Take `COc1ccc(-c2cc(C(=O)Nc3ccc(C)c(C)c3)nc(NC#N)n2)cc1`: the TGI in the experiment on SF-539 CNS, in the experiment with A549 NSCLC, in the experiment on UACC-62 melanoma, in the experiment on MOLT-4 leukemia, in the experiment with LOX IMVI melanoma and with KM12 colon was greater than 100 µM throughout.

Consider `NC(=O)c1csc(C2OC(COP(=O)(O)CP(=O)(O)OCC3OC(n4cnc5c(N)ncnc54)C(O)C3O)C(O)C2O)n1` (stereo not drawn), for which the TGI with SF-539 CNS, in the experiment on A549 NSCLC, in the experiment with UACC-62 melanoma, in the experiment with MOLT-4 leukemia, in the experiment with HL-60(TB) leukemia and in the experiment with LOX IMVI melanoma was greater than 100 µM in each case. This compound also yielded a TGI in the experiment with KM12 colon greater than 100 µM.

`N#CC(C#N)c1ccc(C(=O)N2CCC[C@H]2CO)cc1`: the TGI in the experiment on SF-539 CNS, in the experiment with A549 NSCLC, in the experiment on UACC-62 melanoma, in the experiment with MOLT-4 leukemia, in the experiment with HL-60(TB) leukemia and with LOX IMVI melanoma was greater than 100 µM throughout. In the experiment with KM12 colon, this compound gave a TGI greater than 100 µM.

`C=C1CCC2[C@@H](CCC3[C@]2(C)CCC[C@]3(C)C(=O)OC)C1CC=O` (stereo partly drawn): the TGI in the experiment on SF-539 CNS was determined as 31.1 µM; in the experiment with A549 NSCLC, 42.5 µM; in the experiment on UACC-62 melanoma, 31.6 µM; in the experiment with MOLT-4 leukemia it was 29.8 µM; in the experiment on HL-60(TB) leukemia, 40.1 µM; in the experiment with KM12 colon, 36.6 µM. Further, the results for the GI50 in the experiment on A549 NSCLC, with MOLT-4 leukemia and in the experiment on KM12 colon were 21 µM, 11.2 µM and 18.7 µM, respectively.

Regarding `CC12CCC(=O)N1c1ccc([N+](=O)[O-])cc1N2` (stereo not drawn), the TGI with SF-539 CNS, with A549 NSCLC, in the experiment on UACC-62 melanoma, in the experiment on MOLT-4 leukemia, with HL-60(TB) leukemia and in the experiment on LOX IMVI melanoma was greater than 100 µM in each case. The TGI in the experiment on KM12 colon is greater than 100 µM.

For `O=C(CC1SC(=Nc2ccccc2Cl)NC1=O)Nc1ccc(Cl)cc1Cl` (stereo not drawn), the TGI with A549 NSCLC, in the experiment on UACC-62 melanoma, with MOLT-4 leukemia, with HL-60(TB) leukemia, with LOX IMVI melanoma and with KM12 colon was greater than 100 µM each time.

`CCOC(=O)/C(C#N)=C(O)/C(=C\c1ccc(Br)cc1)NC(=O)c1ccccc1`: the TGI with SF-539 CNS, in the experiment with A549 NSCLC, with UACC-62 melanoma, with MOLT-4 leukemia, in the experiment with HL-60(TB) leukemia and in the experiment on KM12 colon was greater than 100 µM throughout.

For the compound `O=S(=O)(c1cccc(N=C=S)c1)c1cccc(N=C=S)c1`, the TGI is greater than 100 µM in the experiment on A549 NSCLC; 36.2 µM in the experiment with UACC-62 melanoma; 30.6 µM with MOLT-4 leukemia; 50 µM in the experiment on HL-60(TB) leukemia; 31.6 µM with LOX IMVI melanoma; 61.5 µM with KM12 colon.

Turning to `N#Cc1ccc(C=NC23CC4CC(CC(C4)C2)C3)cc1`, the TGI with SF-539 CNS was greater than 100 µM; in the experiment on A549 NSCLC, greater than 100 µM; in the experiment on UACC-62 melanoma, greater than 100 µM; with MOLT-4 leukemia, greater than 100 µM; in the experiment with HL-60(TB) leukemia, 53 µM; with LOX IMVI melanoma it was greater than 100 µM. The same compound had a TGI in the experiment with KM12 colon greater than 100 µM.

As to `CCCCCCCCCCCCC(Br)C(=O)NCC(N)=O` (stereo not drawn), the TGI amounted to 27.7 µM with SF-539 CNS; 34.7 µM with A549 NSCLC; 22.7 µM in the experiment with UACC-62 melanoma; 31 µM with HL-60(TB) leukemia; 42.1 µM in the experiment on LOX IMVI melanoma; 28.8 µM in the experiment on KM12 colon.

Consider `COCCNC(=O)C1C(=O)C(=O)N(CCOC)C1=O` (stereo not drawn), for which the TGI in the experiment on SF-539 CNS, with A549 NSCLC, with UACC-62 melanoma and in the experiment with LOX IMVI melanoma was greater than 100 µM each time.

Turning to `Cc1nc(C(=O)O)c2ccccc2n1`, the TGI in the experiment on SF-539 CNS, in the experiment with A549 NSCLC, in the experiment with UACC-62 melanoma, in the experiment with MOLT-4 leukemia, with HL-60(TB) leukemia and in the experiment with KM12 colon was greater than 100 µM each time.

With `O=c1[nH]cc(F)c(=O)n1C1OC(CO)C(O)C1O` (stereo not drawn), the TGI in the experiment with A549 NSCLC, with MOLT-4 leukemia, in the experiment with HL-60(TB) leukemia, in the experiment on LOX IMVI melanoma and with KM12 colon was greater than 100 µM each time.

For `O=S(=O)(/C=C/C(=C/c1ccccc1)S(=O)(=O)c1ccccc1)c1ccccc1`, the TGI in the experiment on SF-539 CNS was found to be 3.15 µM; in the experiment with A549 NSCLC it was 4.65 µM; in the experiment on UACC-62 melanoma, 3.85 µM; in the experiment on MOLT-4 leukemia it was 5.21 µM; with LOX IMVI melanoma, 2.08 µM; in the experiment on KM12 colon, 5.42 µM.

Take `Cc1cc(C)nc(NS(=O)(=O)c2ccc(Nc3c4ccccc4nc4c(C(=O)Nc5ccc(S(=O)(=O)N=C(N)N)cc5)cccc34)cc2)n1`: the TGI in the experiment on SF-539 CNS, in the experiment on A549 NSCLC, in the experiment on UACC-62 melanoma, in the experiment on MOLT-4 leukemia, in the experiment on LOX IMVI melanoma and in the experiment with KM12 colon was greater than 100 µM in each case.

Turning to `N#CC(c1ccccn1)c1nc2ccccc2[nH]1` (stereo not drawn), the TGI in the experiment with A549 NSCLC, in the experiment with UACC-62 melanoma, in the experiment with MOLT-4 leukemia and in the experiment with HL-60(TB) leukemia was greater than 100 µM each time.
